Measurements as given in US9877836B2, “Compression resistant implants including an oxysterol and methods of use” (Warsaw Orthopedic, Inc., priority 2015, dated 2018).
“Also recorded” adds a separate entry of the source.

Assays:
[1] = test system: multipotent mesenchymal cells such as M2-10B4 (M2) marrow stromal cells and C3H10T1/2 embryonic fibroblasts; conditions: Kha et al. J Bone Miner Res 19:830-840, 2004; cited from earlier work
[2] = test system: Mesenchymal stem cells; conditions: general statement, no experiment described; cited from earlier work
[3] = test system: rat spines (posterolateral space, L3-L5); assay: posterolateral spinal fusion in rat two-level spine model; assay type: in vivo; conditions: for bone growth on radiographs: 4-week and 8-week timepoints; for fusion by manual palpation of the spine segments (in words): 8 weeks; for fusion observed in rat spines (manual palpation): matrix of Oxy133, collagen and ceramic wetted with sterile water, two implants bilaterally, 8-week sacrifice, 5/5 spines
Protocol: FIG. 6 illustrates uses of a formulation of malleable implants having 20 mg of Oxy133 on each side of the implant, in accordance with the malleable implants described herein. […] A dry composition of a matrix containing Oxy133, collagen and ceramic as described herein was prepared and wetted with sterile water to be implanted in rat spines as shown in FIG. 6. The wetted matrix was cut in half with a razor blade to yield two halves. The two implants were molded into cylindrical shapes prior to insertion and were positioned bilaterally in the posterolateral space of each test subject. Each implant contained 20 mg Oxy133. Radiographs were taken roughly 10 minutes after the procedure, 4 weeks after the procedure, and 8 weeks after the procedure. […] Fusion was tested at 8-week sacrifice by manual palpation. […] A dry composition of a matrix containing Oxy133, collagen and ceramic as described herein was prepared and wetted with sterile water to be implanted in rat spines as shown in FIG. 6. The wetted matrix was cut in half with a razor blade to yield two halves. The two implants were molded into cylindrical shapes prior to insertion and were positioned bilaterally in the posterolateral space of each test subject. Each implant contained 125 mg Oxy133. Radiographs were taken roughly 10 minutes after the procedure, 4 weeks after the procedure, and 8 weeks after the procedure. […] Fusion was tested at 8-week sacrifice by manual palpation.

For CC(C)CCC[C@](C)(O)[C@H]1CC[C@H]2[C@@H]3CC=C4C[C@@H](O)CC[C@]4(C)[C@H]3CC[C@@]21C [20(S)-hydroxycholesterol], the osteogenic differentiation [1] is given as “induce osteogenic differentiation”.

For CC(C)CC[C@@H](O)[C@@H](C)[C@H]1CC[C@H]2[C@@H]3CC=C4C[C@@H](O)CC[C@]4(C)[C@H]3CC[C@]12C [22(R)-hydroxycholesterol], the osteogenic differentiation [1] is listed as “induce osteogenic differentiation”.

In the case of CC(C)CC[C@H](O)[C@@H](C)[C@H]1CC[C@H]2[C@@H]3CC=C4C[C@@H](O)CC[C@]4(C)[C@H]3CC[C@]12C [22(S)-hydroxycholesterol], the osteogenic differentiation [1] is listed as “induce osteogenic differentiation”.

For CCCCCC[C@](C)(O)[C@H]1CC[C@H]2[C@@H]3C[C@H](O)[C@H]4C[C@@H](O)CC[C@]4(C)[C@H]3CC[C@@]21C [Oxy133, (3S,5S,6S,8R,9S,10R,13S,14S,17S)-17-((S)-2-hydroxyoctan-2-yl)-10,13-dimethylhexadecahydro-1H-cyclopenta[α]phenanthrene-3,6-diol], the osteoblast differentiation [2] is given as “increased osteoblast differentiation”, the “bone growth on radiographs” value ([3]; implants with 20 mg Oxy133 each) is given as “promoted bridging bone across the transverse processes of L3-L5; also recorded: Bone growth in rat test subjects can be seen” and the “fusion by manual palpation of the spine segments (in words)” value ([3]; implants with 20 mg Oxy133 on each side) is given as “fusion was confirmed”. The “bone growth on radiographs” value ([3]; implants with 125 mg Oxy133 each) was “promoted bridging bone across the transverse processes of L3-L5; also recorded: Bone growth in rat test subjects can be seen”, the “fusion by manual palpation of the spine segments (in words)” value ([3]; implants with 125 mg Oxy133 on each side) was “fusion was confirmed” and the “fusion observed in rat spines (manual palpation)” value ([3]; each 20 mg Oxy133) was 100%. For the same molecule, the “fusion observed in rat spines (manual palpation)” value ([3]; each 125 mg Oxy133) was 100%.
